According to ChEMBL document CHEMBL1133932, “Synthesis and biological evaluation of L- and D-configurations of 2',3'-dideoxy-4'-C-methyl-3'-oxacytidine analogues” (Bioorg Med Chem Lett, 2001):

How the values were obtained:
Type in all cases: functional, cell-based
CCRF-CEM = assay: In vitro inhibition of CCRF-CEM lymphoblastic leukemia cell replication by the compound; settings: Homo sapiens
L1210 [1] = assay: In vitro inhibition of L1210 leukemia cell replication by the compound; settings: Mus musculus
P388 = assay: In vitro inhibition of P388 leukemia cell replication by the compound; settings: Mus musculus
B16-F10 = assay: In vitro inhibition of B16F10 melanoma cell replication by the compound; settings: Mus musculus
L1210 [2] = assay: In vitro inhibition of L1210 leukemia cell replication by the compound at; settings: Mus musculus

Compound | IC50 (CCRF-CEM) [µM] | IC50 (L1210 [1]) [µM] | IC50 (P388) [µM] | IC50 (B16-F10) [µM] | IC50 (L1210 [2]) [µM]
CC1(CO)OC[C@@H](n2cc(F)c(N)nc2=O)O1 (some centres not stated) | > 100 | > 100 | > 100 | > 100 | –
CC1(CO)OC[C@@H](n2ccc(N)nc2=O)O1 (some centres not stated) | > 100 | > 100 | > 100 | > 100 | –
C[C@]1(CO)OCC(n2cc(F)c(N)nc2=O)O1 (some centres not stated) | > 100 | > 100 | > 100 | > 100 | –
C[C@]1(CO)OCC(n2cc(F)c(N)nc2=O)O1 (single isomer, unassigned) | > 100 | > 100 | 50 | > 100 | –
CC1(CO)OCC(n2cc(F)c(N)nc2=O)O1 (configuration not stated) | > 100 | – | > 100 | > 100 | > 100

More lines, now with the values ahead:

IC50 (CCRF-CEM) [µM] | IC50 (L1210 [1]) [µM] | IC50 (P388) [µM] | IC50 (B16-F10) [µM] | IC50 (L1210 [2]) [µM] | Compound
> 100 | > 100 | > 100 | 100 | – | C[C@]1(CO)OCC(n2ccc(N)nc2=O)O1 (some centres not stated)
30 | 50 | 10 | 100 | – | CC1(CO)OCC(n2ccc(N)nc2=O)O1 (configuration not stated)
30 | 45 | 5 | 100 | – | C[C@]1(CO)OCC(n2ccc(N)nc2=O)O1 (single isomer, unassigned)
